# Read-outs that look alike come from different tables or passages of the source.
# Biological target: T1, human Bradykinin B1 receptor (Homo sapiens, UniProt P46663)
# T1 construct: host or cells: CHO-K1
# T1 sequence (P46663 1-353): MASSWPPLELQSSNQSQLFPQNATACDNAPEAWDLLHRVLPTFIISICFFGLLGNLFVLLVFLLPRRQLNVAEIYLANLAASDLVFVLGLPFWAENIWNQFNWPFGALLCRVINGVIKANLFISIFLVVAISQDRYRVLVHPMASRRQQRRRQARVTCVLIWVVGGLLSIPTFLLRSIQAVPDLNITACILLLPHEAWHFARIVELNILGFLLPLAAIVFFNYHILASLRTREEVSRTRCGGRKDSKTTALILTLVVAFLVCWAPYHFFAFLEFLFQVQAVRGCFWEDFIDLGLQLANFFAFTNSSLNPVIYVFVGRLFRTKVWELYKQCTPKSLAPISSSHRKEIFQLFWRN
# Assay: Calcium flux Assay (FLIPR) with recombinant CHO-K1 cells expressing human Bradykinin B1 receptor, in presence (hB1 IC50) or absence (hB1 free IC50) of 0.1% BSA
# Type: cell-based
# Procedure: The potency to inhibit the Bradykinin B1 receptor was determined for the compounds of this invention in a cell-based fluorescent calcium-mobilisation assay. The assay measures the ability of test compounds to inhibit Bradykinin B1 receptor agonist-induced increase of intracellular free Ca^2+ in the cell line expressing Bradykinin B1 receptor. […] The change of the intracellular Ca^2+ concentration is monitored with a fluorescent plate reader FLIPR TETRA® (Molecular Devices).
# Calcium flux Assays (FLIPR) with cells expressing human Bradykinin B1 receptor (hB1)
# CHO-K1 cell line expressing human Bradykinin B1 receptor was purchased from Euroscreen (Gosselies, Belgium, with reference name hB1-D1). The cells were grown in Nutrient Mixture Ham's F12 (Sigma) containing 10% Foetal bovine serum (Sigma) and 400 μg/mL G418 (Sigma), 5 μg/mL puromycim (Sigma). […]
# Cells were seeded in a volume of 50 μL in medium without antibiotics and incubated overnight in a humidified atmosphere with 5% CO2 at 37° C. […] The calcium indicator loaded cells were incubated at 37° C. for 2 hrs. Extracellular dye was then removed and each well was filled with 45 μL of assay buffer. Cell plates were kept in dark until used. Compound examples were assayed at 8 concentrations in triplicate. Serial 10-fold dilutions in 100% DMSO were made at a 100-times higher concentration than the final concentration, and then diluted 1:10 in assay buffer. 5 μL of each diluted compound was added to the well of cell plates (yielding final concentration with 1% DMSO), and incubated for 30 min at 28° C. before the addition of Bradykinin B1 receptor agonist on the FLIPR instrument.
# A peptide antagonist Lys-(Des-Arg-Leu)-Bradykinin (Bachem, Brackley) at 20 µM was used to determine the full inhibition as control.
# Peak fluorescence was used to determine the response to agonist obtained at each concentration of compound examples by the following equation:
# % Response=100*(RFU(compound)−RFU(control))/(RFU(DMSO)−RFU(control)) • RFU means relative fluorescence units. • Control means full inhibition by the peptide antagonist Lys-(Des-Arg-Leu)-Bradykinin at 20 µM.
# The response values were plotted against the logarithm of the compound concentrations. The compound examples were tested in triplicates per plate and mean values were plotted in Excel XLfit to determine IC50 values, percentage of maximal inhibition and the Hill slopes.
# [1] = in absence of 0.1% BSA, read-out: hB1 free IC50
# [2] = in presence of 0.1% BSA, read-out: hB1 IC50
Molecule,IC50 [1],IC50 [2]
"1-(3,4- difluorophenyl)- N-{3-(1H- tetrazol-5-yl)-4- [3-(2,2,2- trifluoroethyl)- 1H-pyrazol-1- yl]phenyl}cyclopro- panecarboxa- mide [Example 387]",434 nM,
"1-(3- chlorophenyl)- N-[3-(1H- tetrazol-5-yl)- 6′- (trifluoromethyl)- 2,3′-bipyridin- 5- yl]cyclopropane carboxamide [Example 217]",516 nM,
1-(3- chlorophenyl)- N-[4′- (methoxymethyl)- 2-(1H- tetrazol-5- yl(biphenyl-4- yl]cyclopropane carboxamide [Example 123],,645 nM
"1-[2-fluoro-4- (trifluoromethoxy)- phenyl]-N-{3- (1H-tetrazol-5- yl)-4-[3-(2,2,2- trifluoroethyl)- 1H-pyrazol-1- yl]phenyl}cyclopro- panecarboxa- mide [Example 390]",14 nM,
1-[2-fluoro-4- (trifluoromethyl) phenyl]-N-[4- (4-isopropyl-1H- pyrazol-1-yl)-3- (1H-tetrazol-5- yl)phenyl]cyclopro- panecarboxa- mide [Example 399],5.16 nM,
"COc1ccc(-c2ccc(NC(=O)C3(C4CCC(C)CC4)CC3)cc2-c2nnn[nH]2)cc1 (mixture of isomers) [Example 114, N-[4′-methoxy-2-(1H-tetrazol-5-yl)biphenyl-4-yl]-1-(4-methylcyclo-hexyl) cyclopropane carboxamide]",,1350 nM
"COc1ccc(-c2ccc(NC(=O)C3(C4CCC(C)CC4)CC3)cc2-c2nnn[nH]2)cc1OC (single isomer, unassigned) [Example 52, N-[3′,4′-dimethoxy-2-(1H-tetrazol-5-yl)biphenyl-4-yl]-1-(4-methylcyclohexyl) cyclopropane carboxamide]",,122 nM
"COc1ccc(-c2ccc(NC(=O)C3(C4CCC(C)CC4)CC3)cc2-c2nnn[nH]2)cc1 (single isomer, unassigned) [Example 113, N-[4′-methoxy-2-(1H-tetrazol-5-yl)biphenyl-4-yl]-1-(4-methylcyclo-hexyl) cyclopropane carboxamide]",,1200 nM
"COc1ccc(-c2ccc(NC(=O)C3(c4ccc(F)cc4F)CC3)cc2-c2nnn[nH]2)cc1OC [Example 2, 1-(2,4-difluorophenyl)-N-[3′,4′-dimethoxy-2-(1H-tetrazol-5-yl)biphenyl-4-yl]cyclopropane carboxamide]",,58.9 nM
"COc1ccc(-c2ccc(NC(=O)C3(c4ccccc4F)CC3)cc2-c2nnn[nH]2)cc1OC [Example 3, N-[3′,4′-dimethoxy-2-(1H-tetrazol-5-yl)biphenyl-4-yl]-1-(2-fluorophenyl) cyclopropane-carboxamide]",,54.8 nM
"COc1ccc(-c2ccc(NC(=O)C3(c4ccccc4OC(F)(F)F)CC3)cc2-c2nnn[nH]2)cc1OC [Example 4, N-[3′,4′-dimethoxy-2-(1H-tetrazol-5-yl)biphenyl-4-yl]-1-[2-(trifluoro-methoxy)phenyl] cyclopropane-carboxamide]",,158 nM
"COc1ccc(-c2ccc(NC(=O)C3(c4ccc(C)cc4)CC3(C)C)cc2-c2nnn[nH]2)cc1OC (stereo not shown) [Example 5, N-[3′,4′-dimethoxy-2-(1H-tetrazol-5-yl)biphenyl-4-yl]-2,2-dimethyl-1-(4-methylpheny) cyclopropane carboxamide]",,1510 nM
COc1ccc(-c2ccc(NC(=O)C3(c4ccc(F)cc4)CC3(C)C)cc2-c2nnn[nH]2)cc1OC (stereo not shown) [Example 6],,1370 nM
"COc1ccc(-c2ccc(NC(=O)C3(c4ccccc4)CC3(C)C)cc2-c2nnn[nH]2)cc1OC (stereo not shown) [Example 7, N-[3′,4′-dimethoxy-2-(1H-tetrazol-5-yl)biphenyl-4-yl]-2,2-dimethyl-1-phenylcyclo-propane-carboxamide]",,1350 nM
"COc1ccc(-c2ccc(NC(=O)C3(c4ccccc4F)CC3(C)C)cc2-c2nnn[nH]2)cc1OC (stereo not shown) [Example 8, N-[3′,4′-dimethoxy-2-(1H-tetrazol-5-yl)biphenyl-4-yl]-1-(2-fluorophenyl)-2,2-dimethylcyclo-propane-carboxamide]",337 nM,347 nM
